Literature values as cited in patent US20020090664A1, “Methods for measuring stress in mammals” (priority 2000, published 2002).

Test system: salivary cortisol
Details: adults exposed to the fragrance before the stressful event, compared with challenge without fragrance; Tanizawa, JP Patent No.11-19076

Cc1c[nH]c2ccccc12 [skatole]
effect of fragrance on stress induced release of cortisol (salivary cortisol levels): opposite effect
